Measured values reported in patent publication US9504729B2, “Antiangiogenic small molecules and methods of use” (The United States of America, as represented by the …, priority 2009, dated 2016).

Tested on: angiogenesis genes in dermal microvascular endothelial cells
Assay: Real time RT-PCR of angiogenesis gene expression during endothelial tube formation
Type: cell-based
Conditions: 1 μM SM, 24 hours

## COc1ccc(CC2C(=O)NC(C)C(=O)N(C)C3Cc4ccc(cc4)Oc4cc(ccc4O)CC(C(=O)NC(C)C(=O)NC(C)C(=O)N2C)N(C)C3=O)cc1 (centres unmarked) [compound 259969]
  Log2 fold-change of gene expression: 1839: −4.2
  Log2 fold-change of gene expression: 4247: 0.2
  Log2 fold-change of gene expression: 5569: 4.6
  Log2 fold-change of gene expression: 8131: −0.2
  Log2 fold-change of gene expression: 9569: −1.7
  Log2 fold-change of gene expression: 10988: 0.3
  Log2 fold-change of gene expression: 23001: 0.3
  Log2 fold-change of gene expression: 55332: 0.1
  Log2 fold-change of gene expression: 57722: −0.1
  Log2 fold-change of gene expression: 58488: 0.4
  Log2 fold-change of gene expression: 90780: −2.4
  Log2 fold-change of gene expression: 134265: −0.6
  Log2 fold-change of gene expression: AKT1: −1.4
  Log2 fold-change of gene expression: ANGPT1: 1.4
  Log2 fold-change of gene expression: ANGPT2: 0.9
  Log2 fold-change of gene expression: ANGPTL3: 3.6
  Log2 fold-change of gene expression: ANGPTL4: 1.5
  Log2 fold-change of gene expression: ANPEP: 0.2
  Log2 fold-change of gene expression: ANTXR1: −1.4
  Log2 fold-change of gene expression: APOE: 0.8
  Log2 fold-change of gene expression: ARHGEF1: −0.8
  Log2 fold-change of gene expression: Acvrl1: −1.9
  Log2 fold-change of gene expression: Adcy4: −0.6
  Log2 fold-change of gene expression: BAL1: 0.4
  Log2 fold-change of gene expression: BMP1: −0.6
  Log2 fold-change of gene expression: C1orf54: −6.1
  Log2 fold-change of gene expression: CALD1: −0.6
  Log2 fold-change of gene expression: CCL2: 3.6
  Log2 fold-change of gene expression: CCL11: 0.0
  Log2 fold-change of gene expression: CD248: 0.6
  Log2 fold-change of gene expression: CDH5: −1.6
  Log2 fold-change of gene expression: CENTD3: −1.0
  Log2 fold-change of gene expression: CLIC1: 1.8
  Log2 fold-change of gene expression: COL4A3: 3.2
  Log2 fold-change of gene expression: COL18A1: 1.9
  Log2 fold-change of gene expression: COMT: −1.7
  Log2 fold-change of gene expression: CST4: 0.4
  Log2 fold-change of gene expression: CTTNBP2NL: −1.0
  Log2 fold-change of gene expression: CXCL3: 11.6
  Log2 fold-change of gene expression: CXCL5: 10.2
  Log2 fold-change of gene expression: CXCL6: 1.0
  Log2 fold-change of gene expression: CXCL9: 0.5
  Log2 fold-change of gene expression: CXCL10: 2.8
  Log2 fold-change of gene expression: Calcr1: −2.9
  Log2 fold-change of gene expression: Caskin2: −2.3
  Log2 fold-change of gene expression: Ccbp2: 5.6
  Log2 fold-change of gene expression: Cldn5: 0.4
  Log2 fold-change of gene expression: DGKG: 6.1
  Log2 fold-change of gene expression: DKK3: −2.7
  Log2 fold-change of gene expression: DLL4: −4.1
  Log2 fold-change of gene expression: DUT: −1.9
  Log2 fold-change of gene expression: EFNA1: 7.8
  Log2 fold-change of gene expression: EFNA3: 0.3
  Log2 fold-change of gene expression: EFNB2: −6.6
  Log2 fold-change of gene expression: EGF: 0.2
  Log2 fold-change of gene expression: ENG: −0.7
  Log2 fold-change of gene expression: EPHB4: 0.3
  Log2 fold-change of gene expression: EREG: 9.3
  Log2 fold-change of gene expression: ESAM1: −1.6
  Log2 fold-change of gene expression: EXTL3: 0.4
  Log2 fold-change of gene expression: Egf17: −2.3
  Log2 fold-change of gene expression: Ehd4: −0.7
  Log2 fold-change of gene expression: Entpd1: −5.6
  Log2 fold-change of gene expression: Epas1: 1.5
  Log2 fold-change of gene expression: EphB1: 0.6
  Log2 fold-change of gene expression: Erg: −3.9
  Log2 fold-change of gene expression: FGF1: 5.7
  Log2 fold-change of gene expression: FGF2: 2.5
  Log2 fold-change of gene expression: FGFR3: 1.2
  Log2 fold-change of gene expression: FIGF: 0.2
  Log2 fold-change of gene expression: FLT1: −0.7
  Log2 fold-change of gene expression: Fgd5: −0.8
  Log2 fold-change of gene expression: GPCR124: −4.6
  Log2 fold-change of gene expression: GRRP1: 0.6
  Log2 fold-change of gene expression: Grp116: −5.5
  Log2 fold-change of gene expression: HAND2: 1.4
  Log2 fold-change of gene expression: HGF: 1.5
  Log2 fold-change of gene expression: HIF1A: 0.7
  Log2 fold-change of gene expression: HPSE: 2.6
  Log2 fold-change of gene expression: Hspa12b: −10.2
  Log2 fold-change of gene expression: ID1: 1.5
  Log2 fold-change of gene expression: ID3: 2.5
  Log2 fold-change of gene expression: IFNA1: 1.1
  Log2 fold-change of gene expression: IFNB1: 1.6
  Log2 fold-change of gene expression: IFNG: 6.0
  Log2 fold-change of gene expression: IGF1: −2.6
  Log2 fold-change of gene expression: IL1B: 1.3
  Log2 fold-change of gene expression: IL6: 9.4
  Log2 fold-change of gene expression: IL8: 11.3
  Log2 fold-change of gene expression: ITGAV: −0.9
  Log2 fold-change of gene expression: ITGB3: −2.9
  Log2 fold-change of gene expression: Icam1: 2.8
  Log2 fold-change of gene expression: Icam2: 7.5
  Log2 fold-change of gene expression: JAG1: 1.7
  Log2 fold-change of gene expression: KDR: −0.5
  Log2 fold-change of gene expression: Kifc1: −4.8
  Log2 fold-change of gene expression: LAMAS5: −0.8
  Log2 fold-change of gene expression: LECT1: −8.0
  Log2 fold-change of gene expression: LEP: 0.8
  Log2 fold-change of gene expression: Lasts2: 1.5
  Log2 fold-change of gene expression: Lrrk1: 0.3
  Log2 fold-change of gene expression: MDK: −1.0
  Log2 fold-change of gene expression: MMP2: −0.1
  Log2 fold-change of gene expression: MMP9: 4.3
  Log2 fold-change of gene expression: MMP11: 0.1
  Log2 fold-change of gene expression: MRC2: −0.6
  Log2 fold-change of gene expression: Mmm2: −7.5
  Log2 fold-change of gene expression: Myo1b: −3.0
  Log2 fold-change of gene expression: NID1: −3.6
  Log2 fold-change of gene expression: NM023516: 0.9
  Log2 fold-change of gene expression: NRP1: −2.6
  Log2 fold-change of gene expression: NRP2: −3.5
  Log2 fold-change of gene expression: Notch4: −0.3
  Log2 fold-change of gene expression: Npr3: 2.7
  Log2 fold-change of gene expression: PALD: −1.3
  Log2 fold-change of gene expression: PDCD2: −1.7
  Log2 fold-change of gene expression: PDGFA: 1.1
  Log2 fold-change of gene expression: PECAM1: −3.0
  Log2 fold-change of gene expression: PGF: −7.2
  Log2 fold-change of gene expression: PLAU: 3.8
  Log2 fold-change of gene expression: PLG: −1.0
  Log2 fold-change of gene expression: PNMT: −0.1
  Log2 fold-change of gene expression: PROK2: 2.2
  Log2 fold-change of gene expression: PTGS1: 2.9
  Log2 fold-change of gene expression: PTPRCAP: 0.9
  Log2 fold-change of gene expression: Pltp: 1.4
  Log2 fold-change of gene expression: Ptprb: −0.1
  Log2 fold-change of gene expression: Ptprm: 1.7
  Log2 fold-change of gene expression: RAMP2: −5.9
  Log2 fold-change of gene expression: RASD2: 0.5
  Log2 fold-change of gene expression: Rasip1: −1.1
  Log2 fold-change of gene expression: S1PR1: −0.3
  Log2 fold-change of gene expression: SERPINF1: 6.5
  Log2 fold-change of gene expression: SPHK1: 3.2
  Log2 fold-change of gene expression: STAB1: 0.5
  Log2 fold-change of gene expression: Sdc4: 4.0
  Log2 fold-change of gene expression: Sdpr: 0.9
  Log2 fold-change of gene expression: Slc43a3: 0.2
  Log2 fold-change of gene expression: Slco2a1: −2.4
  Log2 fold-change of gene expression: TEK: 1.6
  Log2 fold-change of gene expression: TGFA: 8.7
  Log2 fold-change of gene expression: TGFB1: 0.3
  Log2 fold-change of gene expression: TGFB2: 1.3
  Log2 fold-change of gene expression: TGFBR1: 1.1
  Log2 fold-change of gene expression: THBS1: −0.1
  Log2 fold-change of gene expression: THBS2: 2.6
  Log2 fold-change of gene expression: THY1: −3.0
  Log2 fold-change of gene expression: TIMP1: 2.5
  Log2 fold-change of gene expression: TIMP2: 0.0
  Log2 fold-change of gene expression: TIMP3: −0.6
  Log2 fold-change of gene expression: TNF: 9.3
  Log2 fold-change of gene expression: TNS1: −0.3
  Log2 fold-change of gene expression: TNS3: −8.0
  Log2 fold-change of gene expression: TRA2B: 0.6
  Log2 fold-change of gene expression: TYMP: 0.1
  Log2 fold-change of gene expression: VEGFA: 5.7
  Log2 fold-change of gene expression: VEGFC: 1.9
  Log2 fold-change of gene expression: VGLL4: 1.3
  Log2 fold-change of gene expression: Vwf: −5.4
  Log2 fold-change of gene expression: copa: −2.1
  Log2 fold-change of gene expression: itbp4: −1.7
  Log2 fold-change of gene expression: ralb: 0.7
  Log2 fold-change of gene expression: stard9: 0.0
1st listing (r49)
  Log2 fold-change of gene expression: B2M: 1.2
1st listing (r50)
  Log2 fold-change of gene expression: HPRT1: 0.6
1st listing (r51)
  Log2 fold-change of gene expression: RPL13A: 1.2
1st listing (r52)
  Log2 fold-change of gene expression: GADPH: −1.0
1st listing (r53)
  Log2 fold-change of gene expression: ACTB: −2.5
1st listing (r74)
  Log2 fold-change of gene expression: PLXDC1: 2.3
1st listing (r91)
  Log2 fold-change of gene expression: TNFAIP2: 4.6
1st listing (r95)
  Log2 fold-change of gene expression: Robo4: −4.1
1st listing (r134)
  Log2 fold-change of gene expression: 151516: 0.5
2nd listing (r92)
  Log2 fold-change of gene expression: TNFAIP2: 4.7
2nd listing (r97)
  Log2 fold-change of gene expression: B2M: 1.5
2nd listing (r98)
  Log2 fold-change of gene expression: HPRT1: −0.5
2nd listing (r99)
  Log2 fold-change of gene expression: RPL13A: 0.7
2nd listing (r100)
  Log2 fold-change of gene expression: GADPH: 0.0
2nd listing (r101)
  Log2 fold-change of gene expression: ACTB: −2.2
2nd listing (r104)
  Log2 fold-change of gene expression: PLXDC1: −2.4
2nd listing (r139)
  Log2 fold-change of gene expression: 151516: 0.5
2nd listing (r188)
  Log2 fold-change of gene expression: Robo4: 0.3
3rd listing (r145)
  Log2 fold-change of gene expression: B2M: 0.5
3rd listing (r146)
  Log2 fold-change of gene expression: HPRT1: 0.8
3rd listing (r147)
  Log2 fold-change of gene expression: RPL13A: 0.0
3rd listing (r148)
  Log2 fold-change of gene expression: GADPH: −1.7
3rd listing (r149)
  Log2 fold-change of gene expression: ACTB: −2.2
4th listing (r193)
  Log2 fold-change of gene expression: B2M: 0.8
4th listing (r194)
  Log2 fold-change of gene expression: HPRT1: 0.5
4th listing (r195)
  Log2 fold-change of gene expression: RPL13A: 0.0
4th listing (r196)
  Log2 fold-change of gene expression: GADPH: −2.1
4th listing (r197)
  Log2 fold-change of gene expression: ACTB: 0.4
